Where a name gives a salt, the structure may show the parent alone.
How the values were obtained:
[1] = test system: isoproterenol-induced tachycardia; test: β1-sympatholytic action: inhibition of isoproterenol-induced tachycardia in pithed rats; format: in vivo, pithed rats (Sprague-Dawley, Rattus norvegicus); conditions: for β1-sympatholytic action, R.A. (relative activity): Propranolol = 1.00, from ED 50%, intravenous; for β1-sympatholytic activity, times greater than that of propranolol: versus propranolol
Experimental: The β-sympatholytic action was tested on rats, in comparison with the known β-sympatholytic agent propanolol (1-(isopropylamino)-1-naphthyloxy-2-propanol.HCl). The following methods were used for this purpose:
1. β1 -sympatholytic action
^1 Inhibition of isoproterenolinduced tachycardia in pithed rats.
Intravenous administration
^2 Dose which inhibits the isoproterenolinduced tachycardia by 50%

[2] = for Therapeutic range, relative: in vivo; for Therapeutic range (LD 50/ED 50%), times greater than that of propranolol: versus propranolol
[3] = test system: NMRI mice; test: Acute toxicity in mice, intraperitoneal; conditions: deaths within 24 hours, Probit analysis
Experimental: The acute toxicity was determined on groups of 10 female NMRI mice, weight 19-27 g, with intraperitoneal administration.
Intraperitoneal administration

Row | Structure (SMILES) | β1-sympatholytic action, R.A. (relative activity) ([1]; pithed rats) | ED50 ([1]; Rattus norvegicus, iv, 5 min, read-out: β1-sympatholytic action, ED 50% (dose which inhibits the isoproterenol-induced tachycardia by 50%)) | β1-sympatholytic activity, times greater than that of propranolol [1] | Therapeutic range, relative [2] | Therapeutic range (LD 50/ED 50%), times greater than that of propranolol [2] | Acute toxicity LD 50 [3] | increase in pulse rate, on average ([1]; isoproterenol 0.1 μg/kg intravenously, pithed rats)
1 | CC(C)NCC(O)COc1cccc2ccccc12 (racemic) [Propranolol, 1-(isopropylamino)-1-naphthyloxy-2-propanol.HCl, reference compound] | 1.00 | 0.0127 mg/kg | – | – | – | – | –
2 | CC(C)(C)NCC(O)COc1ccccc1-c1ccc[nH]1 (stereo not drawn) [Example 1, 2-[2-(3-tert.-butylamino-2-hydroxypropoxy)-phenyl]-pyrrole fumarate] | 5.59 | – | 5.6 times | 6.91 | 7 times | 165 | –
3 | CC(C)NCC(O)COc1ccccc1-c1ccc[nH]1 (stereo not drawn) [Example 2, 2-[2-(3-isopropylamino-2-hydroxypropoxy)-phenyl]-pyrrole fumarate hemihydrate] | 3.18 | – | 3.2 times | 4.07 | 4 times | – | –
4 | CC(C)NCC(O)c1ccc(O)c(O)c1 (stereo not drawn) [Isoproterenol, reference compound] | – | – | – | – | – | – | 45%

From patent US4267187A, “Aminopropanol derivatives of 2-(0-hydroxyphenyl)-pyrrole” (BASF Aktiengesellschaft, priority 1978, dated 1981)
